The source of these data is US8748470B2, “Methods for treating ovarian cancer by inhibiting fatty acid binding proteins” (The University of Chicago, priority 2011, dated 2014).

Data set [1] relates to human ovarian cancer cells (HeyA8 or SKOV3ip1). Put plainly: ex vivo ovarian cancer cell proliferation on sections of human omentum. Type of data set: cell-based. Particulars: HeyA8 or SKOV3ip1, fluorescently labeled, 24 h. The text has this: Representative images (left) and quantified fluorescence (right) were shown. Bars report means±s.e.m.
The test system of data set [2] is ID8 mouse ovarian cancer cells. The data set is described as follows: tumor burden in mice after bursal injection of ID8 cells and treatment with FABP4 inhibitor. Type of data set: in vivo. Particulars: 20 mg/kg body weight daily by oral gavage from day 60 after ID8 injection, assessed after 30 d.
Procedure: (a) Immune competent mice were injected with 1 million ID8 cells under the ovarian bursa. […] Number of metastases (a) and metastatic tumor weight (b) were assessed 30 d after the FABP4 inhibitor or control vehicle treatment.
The subject of data set [3] is SKOV3ip1 cells. Put plainly: lipid accumulation in cancer cells cocultured with primary human omental adipocytes (Bodipy 493/503, confocal microscopy). Type of data set: cell-based. The text has this: (§1) FIGS. 11a-11g FABP4 has a key role in the interaction of cancer cells with adipocytes. (a) Representative immunohistochemical staining (bottom) for FABP4 in serial sections of primary ovarian tumor and corresponding omental metastatic tissues from a subject with stage IIIC advanced serous ovarian cancer (as classified by the International Federation of Gynecology and Obstetrics). Hematoxylin and eosin (H & E) staining is in the top images. The graph on the right is a summary of FABP4 protein expression scoring in 20 subjects, as assessed by immunohistochemistry. The scoring (0, 1 or 2, corresponding to negative, weak or strong) was performed in different tissue compartments: Benign ovarian stroma (A), primary ovarian cancer in the ovary (B), ovarian cancer metastatic to the omentum (C), interface of ovarian cancer cells into adipocytes (Adi) (D), and adipocytes (E). Error bars, ±s.e.m. […]
Lipid visualization. […] Adipocytes and extracellular fatty acids were washed away with HBSS containing 0.2% fatty-acid free BSA and total fluorescence per well in triplicate was quantified. […] Quantification of Bodipy neutral lipid dye was performed using Imaris software (Bitplane Inc., South Windor, Conn.) and normalized to number of nuclei in field (5-10 fields/condition). […]

Data set [4] has as its system SKOV3ip1 cells. The data set is described as follows: invasion assay of SKOV3ip1 cells toward adipocytes. Type of data set: cell-based, human. Particulars: inhibitor added to coculture; used at 10 μM; 24 h.
Excerpt: as §1, with “±s.e.m. (b) Confocal microscopy images of lipid accumulation in SKOV3ip1 cells cocultured with or without primary human omental adipocytes and a FABP4 inhibitor (nuclear counterstaining). One of two experiments, conducted with different human subject samples, is shown. (c) Invasion assay of SKOV3ip1 cells toward adipocytes in the absence or presence of the FABP4 inhibitor HTS01037. Bars report mean fold change±s.e.m. One of two experiments, using two different human subject samples, is shown.” for “±s.e.m.”

The test system of data set [5] is HSL phosphorylation. The data set is described as follows: immunoblot for phosphorylated hormone sensitive lipase (p-HSL) in adipocyte/SKOV3ip1 coculture. Type of data set: cell-based, human. Particulars: pretreated with 10 μM propranolol. The text has this:
FIGS. 9a-9d Cocultivation of ovarian cancer cells with adipocytes activates lipolysis in adipocytes and β-oxidation in cancer cells. (a) Quantitative RT-PCR for perilipin 1 in primary human omental adipocytes (Adi) cultured with and without SKOV3ip1 ovarian cancer (OvCa) cells. Bars report mean fold change relative to glyceraldehyde 3-phosphate dehydrogenase expression±s.e.m. (b) Immunoblot for phosphorylated hormone sensitive lipase (p-HSL) and total HSL in SKOV3ip1 cells cocultured with (+) and without (−) adipocytes and pretreated with 10 μM propranolol, a β-adrenergic receptor antagonist. (c) SKOV3ip1 cells were cocultured (1 h) with adipocytes, treated with isoproterenol (positive control) or 14-22 amide (negative control) and protein kinase A (PKA) activity was assessed. (d) β-oxidation in MONTY-1 OvCa cells cocultured with primary human adipocytes (L-carnitine, positive control; etomoxir, negative control). The graph reports the average oxidation rate at the indicated times±s.e.m.
Immunoblotting. In coculture experiments, primary human omental adipocytes were added to CMFDA-labeled SKOV3ip1 cells in SFM (1:5, PCV adipocytes:SFM) and incubated for 24 h. The adipocytes were removed and the SKOV3ip1 cells were subjected to FACS sorting to remove any remaining adipocytes in experiments involving FABP4 expression. […]
(In western blotting, separated proteins are transferred to a membrane and probed.)

Data set [6] has as its system FABP4 mRNA. The data set is described as follows: FABP4 mRNA expression in ID8 cells transfected with shRNA (quantitative RT-PCR). Type of data set: cell-based, mouse. Particulars: ID8 cells transfected with FABP4 shRNA vs vector control. The text has this:
FIGS. 16a-16d Effects of FABP4 downregulation. (a) FABP4 mRNA expression in ID8 mouse ovarian cancer cells transfected with FABP4 small hairpin RNA (shRNA) (F4) or vector control shRNA (VC) in the presence (+) or absence (−) of mouse adipocytes. Bars report means±s.e.m. (b) Tumor burden in mice 10 weeks after intraperitoneal injection of ID8 mouse ovarian cancer cells transfected with 5 million shRNA (F4 or VC). (c) Metastatic tumor burden in mice 10 weeks after intraperitoneal injection of ID8 mouse ovarian cancer cells transfected with 5 million shRNA (F4 or VC). […] FABP4 mRNA expression was measured by quantitiative RT-PCR.
Quantitative real-time PCR. […] Real-time quantitative reverse transcription-PCR (RT-PCR) was performed as described (Sawada et al., 2008) using the following probes (Applied Biosystems, Carlsbad, Calif.): acyl-coenzyme A oxidase (ACOX1, Hs01074241_m1), CXCR1 (IL-8 receptor, Hs00174146 ml), carnitine palmitoyltransferase 1a (CPT1a, Hs00912681_m1), fatty acid binding protein 4 (FABP4; human, Hs00609791_m1; mouse, Mm00445878_m1), perilipin 1 (PLIN1, Hs00160173_m1) and glyceraldehyde-3-phosphate dehydrogenase (GAPDH; human, Hs00266705_g1; mouse, Mm99999915_g1). Relative mRNA gene expression was calculated using the 2^−ΔΔCt method as described (Shell et al., 2007). […]

The test system of data set [7] is ID8 mouse ovarian cancer cells. The data set is described as follows: tumor burden in mice after intraperitoneal injection of shRNA-transfected ID8 cells. Type of data set: in vivo. Particulars: 10 weeks after intraperitoneal injection of shRNA-transfected ID8 cells, vs control group. From the text:
FIGS. 16a-16d Effects of FABP4 downregulation. (a) FABP4 mRNA expression in ID8 mouse ovarian cancer cells transfected with FABP4 small hairpin RNA (shRNA) (F4) or vector control shRNA (VC) in the presence (+) or absence (−) of mouse adipocytes. Bars report means±s.e.m. (b) Tumor burden in mice 10 weeks after intraperitoneal injection of ID8 mouse ovarian cancer cells transfected with 5 million shRNA (F4 or VC). (c) Metastatic tumor burden in mice 10 weeks after intraperitoneal injection of ID8 mouse ovarian cancer cells transfected with 5 million shRNA (F4 or VC). (d) mRNA expression of FABP4 in tumors collected 10 weeks after intraperitonel injection of ID 8 mouse ovarian cancer cells transferred with FABP4 shRNA or vector control shRNA. FABP4 mRNA expression was measured by quantitiative RT-PCR.
Animal experiments. All animal experiments were approved by the Institutional Animal Care and Use Committee, University of Chicago. Xenograft animal experiments and in vivo homing were conducted in female immune-compromised athymic nude mice. […] Tumor volumes were measured as described (Zou et al., 2007) over 24 d and tumor weight determined at the end of the experiment. […] Metastatic tumor weight and number of metastatic nodules were determined at the end of each experiment and tumor tissue fixed in 10% formalin.

Regarding `CCc1c(-c2ccccc2)c(-c2ccccc2)nn1-c1ccccc1-c1cccc(OCC(=O)O)c1` [BMS309403, ((2′-(5-ethyl-3,4-diphenyl-1H-pyrazol-1-yl)(1,1′-biphenyl)-3-yl)oxy)-acetic acid], the “human ovarian cancer cell proliferation on sections of human omentum” value in data set [1] is reported as “reduces human ovarian cancer cell proliferation”. Further, in data set [2], the “tumor burden (number of metastases, metastatic tumor weight)” value was “significantly reduced”.

Regarding `COC(=O)c1sc(-c2cccs2)cc1NC(=O)C=CC(=O)O` [HTS01037, 4-{[2-(methoxycarbonyl)-5-(2-thienyl)-3-thienyl]amino}-4-oxo-2-butenoic acid], the “lipid uptake in SKOV3ip1 cells cocultured with human omentum adipocytes” value in data set [3] (36 h coculture, Bodipy 493/503) was “prevents lipid uptake”. For the same compound, in data set [3] (inhibitor added to coculture of ovarian cancer cells and adipocytes, used at 10 μM), the “lipid accumulation in the cancer cells” value is “drastically reduced”. Moreover, the adipocyte-mediated invasion result in data set [4] is “drastically reduced”.

In the case of `CC(C)NCC(O)COc1cccc2ccccc12` (centres unmarked) [propranolol], the “ovarian cancer cell-induced HSL activation” value in data set [5] was “partially reversed”.

With “FABP4 shRNA: FABP4 small hairpin RNA (shRNA); comprises a nucleic acid sequence of SEQ ID NO: 1 (CCGGCTGGATGGAAATTTGCATCAACTCGAGTTGATGCAAATTTCCATCCAGTTTTTG)”, the “mRNA expression level of FABP4” value in data set [6] is given as “decreased”. In addition, the “tumor burden, intraperitoneal model” value in data set [7] is recorded as “substantially lowered”.
